From US8846704B2, “Thiopyrimidine-based compounds and uses thereof” (YM Biosciences Austraila Pty Ltd, priority 2007, dated 2014)
pIC50: −log10 of the molar value.

Target: T1, FLT-3 tyrosine kinase (Homo sapiens, UniProt P36888)
T1 construct: purchased Upstate Cell Signalling Solutions, CA, USA 14-500
T1 sequence (P36888 27-993): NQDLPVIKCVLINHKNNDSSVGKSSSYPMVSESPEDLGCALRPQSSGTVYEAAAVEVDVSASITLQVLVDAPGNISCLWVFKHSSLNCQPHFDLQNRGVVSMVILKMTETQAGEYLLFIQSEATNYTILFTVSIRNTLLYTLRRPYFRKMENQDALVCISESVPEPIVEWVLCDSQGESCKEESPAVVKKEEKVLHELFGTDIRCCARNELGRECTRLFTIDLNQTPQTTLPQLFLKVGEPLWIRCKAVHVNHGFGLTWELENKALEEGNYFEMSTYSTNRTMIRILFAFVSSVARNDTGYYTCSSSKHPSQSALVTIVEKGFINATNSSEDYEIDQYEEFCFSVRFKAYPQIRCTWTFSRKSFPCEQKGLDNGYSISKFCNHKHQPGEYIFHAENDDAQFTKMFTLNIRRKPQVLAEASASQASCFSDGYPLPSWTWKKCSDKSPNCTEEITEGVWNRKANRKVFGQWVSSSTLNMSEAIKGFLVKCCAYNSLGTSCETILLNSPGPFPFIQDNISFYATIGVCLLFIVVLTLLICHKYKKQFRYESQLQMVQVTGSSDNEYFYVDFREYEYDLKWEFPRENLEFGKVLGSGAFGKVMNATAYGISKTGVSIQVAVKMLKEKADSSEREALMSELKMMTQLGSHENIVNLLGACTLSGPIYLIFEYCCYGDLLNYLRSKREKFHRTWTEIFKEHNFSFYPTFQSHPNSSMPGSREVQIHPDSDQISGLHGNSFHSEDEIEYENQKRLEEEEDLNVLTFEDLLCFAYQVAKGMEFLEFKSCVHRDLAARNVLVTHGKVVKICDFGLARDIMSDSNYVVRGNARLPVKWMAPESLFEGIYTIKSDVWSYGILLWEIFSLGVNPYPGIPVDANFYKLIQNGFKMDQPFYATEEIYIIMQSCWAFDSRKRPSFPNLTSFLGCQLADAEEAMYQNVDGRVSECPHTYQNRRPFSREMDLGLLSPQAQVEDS
Test: Alphascreen tyrosine kinase enzyme assay, FLT-3
Type: biochemical
Settings: FLT3; read-out: FMS, FLT3, or HCK IC50_nM (FLT3)
Description: For screening purposes, compounds (in 100% DMSO) were warmed at 37 degrees for at least 20 minutes before use. A […] stock was initially made in assay buffer, where the final concentration of DMSO was 0.3%. The stocks were then diluted in 384 well Optiplates (Packard) where the final concentration of the compound was […].
FLT-3 tyrosine kinase enzyme was purchased from Upstate Cell Signalling Solutions, CA, USA (flt-3 catalog #: 14-500).
Kinase assays were performed in 384 well Optiplates (Packard) using an Alphascreen Protein Tyrosine Kinase PY100 detection kit The compounds were pre-incubated with affinity purified PTK domain in the presence of phosphotyrosine assay buffer (10 mM HEPES, pH 7.5, 100 mM MgCl2, 25 mM NaCl, […] and 0.1% Tween 20) for 20 minutes. The compounds were then incubated with substrate in the presence of ATP. The substrate used was susbtrate-1 with the sequence biotin-EGPWLEEEEEAYGWMDF-NH2 [SEQ. ID. NO. 13] (final concentration […]). For HCK 80 μm ATP was used and incubated for 60 minutes. Alphascreen phosphotyrosine acceptor beads followed by streptavidin donor beads at a concentration of 1/100 in stop buffer were added to each well under subdued light and incubated for 2-3 hours., The Alphascreen plates were read on a Packard Fusion Alpha instrument.

In the case of `COc1cc(Nc2nccc(Sc3ccc(NCC#N)cc3)n2)cc(OC)c1OC` [Compound 52, 2-(4-(2-(3,4,5-trimethoxyphenylao)pyrimidin-4-ylthio)phenylao)acetonitrile], the pIC50 was over 6.30.
